Values of other authors as cited in patent publication US20110319467A1, “Absorption Enhancement of Statins and Omega Fatty Acids” (priority 2010, published 2011).

Details: single emulsifier

- HLB value: about 15
Substance: Polyoxyethylene sorbitan monooleate
